Experimental data reported in PubChem BioAssay AID328 (DTP/NCI, 2004).
Several values for one entry are separate records, joined by “and”; a condition that tells them apart may be missing. Identical values can stand only once. Inconclusive results and toxic doses are left out. Starred links: 1 amine or outer side, 2 acyl side, 3 side chain; linkers in the order of their positions; H or OH if unused. Positions of bridges follow the written chain, without caps; N, C: chain ends. Non-standard residues stand in square brackets, D forms with d. Residues, ends and D or L forms follow the SMILES beside them. Chains are numbered I, II in the order given. Actinocin(1to9) = Cc1c2oc3c(C)ccc(C(=O)[*:2])c3nc-2c(C(=O)[*:1])c(N)c1=O; X3 = O=C1CC(C(=O)[*:2])N([*:1])C1; NMeV = CN[CH](C(=O)O)C(C)C; Sar = CNCC(=O)O

Tested on: BDF1 mice, P388 leukemia ip, median survival T/C
Assay: NCI In Vivo Anticancer Drug Screen. Data for tumor model P388 Leukemia (intraperitoneal) in B6D2F1 (BDF1) mice
Conditions: endpoint: median survival time, higher = longer survival
Method in brief: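 Survival ratio, drug arm over vehicle arm, in mice with a transplanted tumour.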

[1] = dose: 50.0 mg/kg/injection, schedule: Q01DX009 (ip), vehicle: saline with Tween-80
[2] = dose: 100.0 mg/kg/injection, schedule: Q01DX009 (ip), vehicle: saline with Tween-80
[3] = dose: 200.0 mg/kg/injection, schedule: Q01DX009 (ip), vehicle: saline with Tween-80
[4] = dose: 100.0 mg/kg/injection, schedule: Q04DX003 (ip), vehicle: Klucel (hydroxypropylcellulose) (HPC)
[5] = dose: 200.0 mg/kg/injection, schedule: Q04DX003 (ip), vehicle: Klucel (hydroxypropylcellulose) (HPC)
[6] = dose: 400.0 mg/kg/injection, schedule: Q04DX003 (ip), vehicle: Klucel (hydroxypropylcellulose) (HPC)
[7] = dose: 100.0 mg/kg/injection, schedule: Q01DX009 (ip), vehicle: Klucel (hydroxypropylcellulose) (HPC)

In the case of `CN(C)c1oc2ccc3ccccc3c2c(=O)c1C#N`, the T/C [1] is reported as 95 % of control, the T/C [2] is reported as 97 % of control and the T/C [3] is reported as 92 % of control.
In the case of `C(=C\C1CC2CCCN2O1)/c1ccccc1` (centres undefined), the T/C (dose: 25.0 mg/kg/injection, schedule: Q01DX009 (ip), vehicle: saline with Tween-80) is reported as 100 % of control, the T/C [1] is reported as 102 % of control and 105 % of control and the T/C [2] is reported as 100 % of control. The T/C [3] was 98 % of control and 102 % of control.
For `Cc1c2oc3c(C)ccc(C(=O)NC4C(=O)NC(C(C)C)C(=O)N5CCCC5C(=O)N(C)CC(=O)N(C)C(C(C)C)C(=O)OC4C)c3nc-2c(C(=O)NC2C(=O)NC(C(C)C)C(=O)N3CC(=O)CC3C(=O)N(C)CC(=O)N(C)C(C(C)C)C(=O)OC2C)c(N)c1=O` (centres undefined) (I: TV[X3][Sar][NMeV] / II: TVP[Sar][NMeV]; ester I:1-I:C, II:1-II:C; linker I:N-II:N via Actinocin(1to9); configuration not given here), the T/C (dose: 1.6 micrograms/kg/injection, schedule: Q01DX009 (ip), vehicle: water) was 120 % of control, the T/C (dose: 4.7 micrograms/kg/injection, schedule: Q04DX003 (ip), vehicle: water) was 163 % of control and the T/C (dose: 9.4 micrograms/kg/injection, schedule: Q04DX003 (ip), vehicle: water) was 162 % of control. The T/C (dose: 12.5 micrograms/kg/injection, schedule: Q01DX009 (ip), vehicle: water) was 172 % of control, the T/C (dose: 25.0 micrograms/kg/injection, schedule: Q01DX001 (ip), vehicle: water) was 155 % of control and the T/C (dose: 25.0 micrograms/kg/injection, schedule: Q01DX009 (ip), vehicle: water) was 120 % of control. For the same compound, the T/C (dose: 37.5 micrograms/kg/injection, schedule: Q04DX003 (ip), vehicle: water) was 175 % of control, the T/C (dose: 50.0 micrograms/kg/injection, schedule: Q01DX001 (ip), vehicle: water) was 155 % of control and the T/C (dose: 75.0 micrograms/kg/injection, schedule: Q04DX003 (ip), vehicle: water) was 86 % of control.
In the case of `COc1ccc2c(c1OC)C1C3CC=CC3C2C2=[N+]1CCc1cc3c(cc12)OCO3` (centres undefined), the T/C (dose: 3.12 mg/kg/injection, schedule: Q01DX009 (ip), vehicle: saline) is reported as 95 % of control, the T/C (dose: 6.25 mg/kg/injection, schedule: Q01DX009 (ip), vehicle: Klucel (hydroxypropylcellulose) (HPC)) is reported as 114 % of control and the T/C (dose: 6.25 mg/kg/injection, schedule: Q01DX009 (ip), vehicle: saline) is reported as 100 % of control. For the same compound, the T/C (dose: 12.5 mg/kg/injection, schedule: Q01DX009 (ip), vehicle: Klucel (hydroxypropylcellulose) (HPC)) was 90 % of control, the T/C (dose: 12.5 mg/kg/injection, schedule: Q01DX009 (ip), vehicle: saline) was 108 % of control and the T/C (dose: 18.0 mg/kg/injection, schedule: Q01DX009 (ip), vehicle: Klucel (hydroxypropylcellulose) (HPC)) was 86 % of control.
`O=[N+]([O-])c1ccc(Cl)c2nonc12` was tested, and the T/C (dose: 15.0 mg/kg/injection, schedule: Q01DX009 (ip), vehicle: saline with Tween-80) was 103 % of control.
`CC(=O)Oc1cc([N+](=O)[O-])ccc1C(=O)O` was tested, and the T/C (dose: 100.0 mg/kg/injection, schedule: Q04DX003 (ip), vehicle: saline with Tween-80) was 104 % of control, the T/C (dose: 200.0 mg/kg/injection, schedule: Q04DX003 (ip), vehicle: saline with Tween-80) was 108 % of control and the T/C (dose: 400.0 mg/kg/injection, schedule: Q04DX003 (ip), vehicle: saline with Tween-80) was 100 % of control.
`O=C(O)CCCc1ccc(Oc2ccccc2)cc1` was tested, and the T/C (dose: 100.0 mg/kg/injection, schedule: Q04DX003 (ip), vehicle: other) was 92 % of control, the T/C (dose: 200.0 mg/kg/injection, schedule: Q04DX003 (ip), vehicle: other) was 93 % of control and the T/C (dose: 400.0 mg/kg/injection, schedule: Q04DX003 (ip), vehicle: other) was 86 % of control.
In the case of `CC(=O)Nc1ccc(Cl)cc1C(=O)O`, the T/C [4] is reported as 91 % of control, the T/C [5] is reported as 95 % of control and the T/C [6] is reported as 100 % of control.
For `O=C1NCCN1c1ccccn1`, the T/C (dose: 12.5 mg/kg/injection, schedule: Q04DX003 (ip), vehicle: saline) was 100 % of control, the T/C (dose: 25.0 mg/kg/injection, schedule: Q04DX003 (ip), vehicle: saline) was 90 % of control and the T/C (dose: 50.0 mg/kg/injection, schedule: Q04DX003 (ip), vehicle: saline) was 95 % of control.
`OCC(F)(F)C(F)(F)C(F)(F)C(F)F` was tested, and the T/C [7] was 95 % of control, the T/C [4] was 104 % of control and the T/C (dose: 200.0 mg/kg/injection, schedule: Q01DX009 (ip), vehicle: Klucel (hydroxypropylcellulose) (HPC)) was 105 % of control. For the same compound, the T/C [5] was 100 % of control, the T/C (dose: 400.0 mg/kg/injection, schedule: Q01DX009 (ip), vehicle: Klucel (hydroxypropylcellulose) (HPC)) was 115 % of control and the T/C [6] was 90 % of control.
With `C/C(=N\NC(N)=O)c1ccc(Cl)cc1` the T/C (dose: 50.0 mg/kg/injection, schedule: Q01DX009 (ip), vehicle: Klucel (hydroxypropylcellulose) (HPC)) was 94 % of control and the T/C [7] was 108 % of control.
In the case of `Cc1ccc(C2=C(Cl)C(=O)NC2=O)s1`, the T/C (dose: 12.5 mg/kg/injection, schedule: Q01DX001 (ip), vehicle: saline with Tween-80) is reported as 112 % of control.
